Experimental data reported in patent publication US9045493B2, “Furo[3,2-b]- and thieno[3,2-b]pyridin derivatives” (Merck Patent GmbH, priority 2012, dated 2015).

Legend:
phospho-IRF3 @ Ser 386 = assay: Cell test: dose response inhibition of phospho-IRF3 @ Ser 386 in MDA-MB-468 cells; assay type: cell-based; settings: Homo sapiens, Poly(I:C) stimulation, read-out: IC50 (reference inhibitor, phospho-IRF3 cell test)
Description: Dose Response Inhibition of Phospho-IRF3 @ Ser 386 Cell/MDAMB468/INH/PHOS/IMAG/pIRF3
This assay has been devised in order to assess the efficacy/potency of TBK1/IKKε inhibitor compounds based on the immunocytochemical detection of nuclear localised phospho-IRF3, a target directly downstream of TBK1.
Treatment with Polyinosine-polycytidylic acid (poly(I:C), a synthetic analog of doublestranded RNA (dsRNA), a molecular pattern associated with viral infection which is recognized by Toll-like receptor 3 (TLR3) is used to induce TBK1/IKKe activity and IRF3 phosphorylation at Ser386.
• Day 1: MDA-MB-468 cells are detached with HyQ-Tase, counted, and seeded into a 384-well clear bottom TC-surface plate at density of 10,000 cells per well in a total volume of 35 ul complete medium. Alternatively cells are directly seeded from frozen vials. • Day 2: Cells are pre-treated with inhibitor compounds for 1 h prior to Poly(I:C) stimulation. After 2 h of incubation with Poly(I:C), cells are fixed in (para)formaldehyde (PFA) and permeabilized with methanol (MeOH). The cells are then blocked and incubated with an anti-pIRF3 antibody at 4° C. overnight. • Day 3: The primary antibody is washed off, an AlexaFluor488-conjugated secondary is added, cells are counterstained with propidium iodide followed by image acquisition on IMX Ultra high content reader.

IKKε = target: T1, IKKε (Homo sapiens, UniProt Q14164); assay: IKKε kinase assay (384-well Flashplate); assay type: biochemical; settings: 10 μM ATP, 2 hours at 30° C.; read-out: IKKε enzyme assay IC50
T1 sequence (Q14164 1-716): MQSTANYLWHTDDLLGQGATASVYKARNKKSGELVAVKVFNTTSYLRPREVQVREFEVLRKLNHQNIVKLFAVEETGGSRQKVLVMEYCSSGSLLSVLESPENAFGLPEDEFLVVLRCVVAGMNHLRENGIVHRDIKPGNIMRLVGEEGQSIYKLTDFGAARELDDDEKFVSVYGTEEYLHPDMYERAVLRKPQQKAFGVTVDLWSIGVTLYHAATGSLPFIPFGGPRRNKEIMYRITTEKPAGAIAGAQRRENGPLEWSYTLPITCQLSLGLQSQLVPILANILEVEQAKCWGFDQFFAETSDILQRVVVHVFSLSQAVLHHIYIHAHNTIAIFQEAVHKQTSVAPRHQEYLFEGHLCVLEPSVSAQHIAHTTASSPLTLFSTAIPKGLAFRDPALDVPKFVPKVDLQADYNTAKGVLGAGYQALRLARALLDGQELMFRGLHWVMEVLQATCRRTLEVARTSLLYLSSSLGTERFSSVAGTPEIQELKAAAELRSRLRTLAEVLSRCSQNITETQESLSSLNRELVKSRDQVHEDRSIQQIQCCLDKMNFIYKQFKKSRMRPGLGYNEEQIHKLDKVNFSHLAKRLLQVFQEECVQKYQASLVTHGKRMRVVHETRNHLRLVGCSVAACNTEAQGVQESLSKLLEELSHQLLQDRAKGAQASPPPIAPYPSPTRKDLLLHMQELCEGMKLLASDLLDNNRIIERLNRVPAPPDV
Outline: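 1 nM IKKε with 800 nM biotinylated IκBα(19-42) peptide and 10 μM ATP spiked with ^33P-ATP, 2 h at 30 °C in MOPS buffer pH 7.5. EDTA stop, Flashplate capture, washes, then radioactivity counted; IC50 derived.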

[1] = target: T2, TANK binding kinase (TBK1) (Homo sapiens, UniProt Q9UHD2); assay: TBK1 enzyme assay (384-well Flashplate kinase assay); assay type: biochemical; settings: 10 μM ATP, 120 Min at 30° C.
T2 sequence (Q9UHD2 1-729): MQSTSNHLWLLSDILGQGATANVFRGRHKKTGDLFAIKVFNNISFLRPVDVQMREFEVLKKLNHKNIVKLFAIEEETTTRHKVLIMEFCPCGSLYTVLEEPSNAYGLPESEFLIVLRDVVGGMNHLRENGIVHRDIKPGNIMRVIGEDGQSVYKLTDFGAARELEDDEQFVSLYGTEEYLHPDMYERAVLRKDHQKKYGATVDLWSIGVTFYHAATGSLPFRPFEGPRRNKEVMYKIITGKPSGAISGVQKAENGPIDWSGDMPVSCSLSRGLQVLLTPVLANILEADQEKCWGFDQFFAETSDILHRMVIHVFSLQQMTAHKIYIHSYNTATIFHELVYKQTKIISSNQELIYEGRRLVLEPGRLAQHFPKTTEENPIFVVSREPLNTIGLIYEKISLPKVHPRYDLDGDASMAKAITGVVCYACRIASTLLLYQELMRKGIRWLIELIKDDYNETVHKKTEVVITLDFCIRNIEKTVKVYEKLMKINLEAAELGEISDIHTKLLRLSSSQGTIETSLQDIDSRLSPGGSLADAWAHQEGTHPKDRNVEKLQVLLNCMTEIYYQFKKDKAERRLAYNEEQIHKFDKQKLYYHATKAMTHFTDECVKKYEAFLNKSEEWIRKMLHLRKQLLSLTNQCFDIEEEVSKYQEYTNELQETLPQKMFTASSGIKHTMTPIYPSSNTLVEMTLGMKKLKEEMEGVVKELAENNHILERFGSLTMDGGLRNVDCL
Outline: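 Radiometric Flashplate assay: 0.6 nM TBK1, 800 nM biotinylated MELK-derived peptide and 10 μM ATP with 33P-ATP, 120 min at 30 °C in MOPS/Mg-acetate buffer pH 7.5. Stopped with EDTA; nonspecific signal defined with 100 nM staurosporine; IC50 from counted radioactivity.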

Row | SMILES | IC50 (phospho-IRF3 @ Ser 386) | IC50 (IKKε) | IC50 [1]
1 | O=C(NCCCNc1nc(Nc2cccc(NC(=O)N3CCCC3)c2)ncc1I)c1cccs1 [BX-795] | 200 to 800 nM |  | 
2 | COc1cc(-c2cc3nccc(-c4ccc(OC5CCOCC5)c(C#N)c4)c3o2)ccc1C(=O)NC1CCN(C)CC1 [Compound A99] |  | < 300 nM | < 300 nM
3 | COc1cc(-c2cc3nccc(-c4ccc(OC5CCOC5)c(C#N)c4)c3s2)ccc1C(=O)N1CCNCC1 (stereo not shown) [Compound A100] |  | < 300 nM | < 300 nM
4 | COc1cc(-c2cc3nccc(-c4ccc(OC5CCOCC5)c(C#N)c4)c3o2)ccc1C(=O)N1CCC(O)CC1 [Compound A101] |  | < 300 nM | < 300 nM
5 | COc1cc(-c2cc3nccc(-c4ccc(OC5CCOCC5)c(C#N)c4)c3o2)ccc1C(=O)N(C)C1CCOCC1 [Compound A102] |  | < 300 nM | < 300 nM
6 | COc1cc(-c2cc3nccc(-c4ccc(OC5CCOCC5)c(C#N)c4)c3o2)ccc1C(=O)N1CCOC(CCO)C1 (stereo not shown) [Compound A103] |  | < 300 nM | < 300 nM
7 | COc1cc(-c2cc3nccc(-c4ccc(OC5CCOCC5)c(C#N)c4)c3o2)ccc1C(=O)N1CCOCC1 [Compound A104] |  | < 300 nM | < 300 nM
8 | COc1cc(-c2cc3nccc(-c4ccc(OC5CCOCC5)c(C#N)c4)c3o2)ccc1C(=O)NC1CCOCC1 [Compound A105] |  | < 300 nM | < 300 nM
9 | COc1cc(-c2cc3nccc(-c4ccc(OC5CCOCC5)c(C#N)c4)c3o2)ccc1C(=O)N[C@@H]1CCCNC1 [Compound A106] |  | < 300 nM | < 300 nM
10 | CN(CCO)C(=O)c1ccc(-c2cc3nccc(-c4ccc(OC5CCOCC5)c(C#N)c4)c3o2)c(F)c1 [Compound A107] |  | < 300 nM | < 300 nM
11 | N#Cc1cc(-c2ccnc3cc(-c4cnn(CCO)c4)sc23)ccc1OC1CCOCC1 [Compound A108] |  | < 300 nM | < 300 nM
12 | COc1cc(-c2cc3nccc(-c4ccc(OC5CCOCC5)c(C#N)c4)c3o2)ccc1C(=O)N1CCNC(=O)C1 [Compound A109] |  | < 300 nM | < 300 nM
13 | N#Cc1cc(-c2ccnc3cc(-c4ccc(C(=O)N5CCNCC5)cc4F)oc23)ccc1OC1CCOCC1 [Compound A111] |  | < 300 nM | < 300 nM
14 | N#Cc1cc(-c2ccnc3cc(-c4ccc(C(=O)N5CCNC(=O)CC5)cc4F)oc23)ccc1OC1CCOCC1 [Compound A112] |  | < 300 nM | < 300 nM
15 | N#Cc1cc(-c2ccnc3cc(-c4ccc(C(=O)N5CCC(O)CC5)cc4F)oc23)ccc1OC1CCOCC1 [Compound A113] |  | < 300 nM | < 300 nM
16 | N#Cc1cc(-c2ccnc3cc(-c4ccc(C(=O)N5CCOCC5)cc4F)oc23)ccc1OC1CCOCC1 [Compound A114] |  | < 300 nM | < 300 nM
17 | COc1cc(C(=O)N(C)CCO)ccc1-c1cc2nccc(-c3ccc(OC4CCOCC4)c(C#N)c3)c2o1 [Compound A115] |  | < 300 nM | < 300 nM
18 | COc1cc(C(=O)N2CCC(O)CC2)ccc1-c1cc2nccc(-c3ccc(OC4CCOCC4)c(C#N)c3)c2o1 [Compound A116] |  | < 300 nM | < 300 nM
19 | COc1cc(C(=O)N(C)C)ccc1-c1cc2nccc(-c3ccc(OC4CCOCC4)c(C#N)c3)c2o1 [Compound A117] |  | < 300 nM | < 300 nM
20 | COc1cc(C(=O)N[C@H]2CCCNC2)ccc1-c1cc2nccc(-c3ccc(OC4CCOCC4)c(C#N)c3)c2o1 [Compound A118] |  | < 300 nM | < 300 nM
21 | COCCn1cc(-c2cc3nccc(-c4ccc(OC5CCOCC5)c(C#N)c4)c3s2)cn1 [Compound A119] |  | < 300 nM | < 300 nM
22 | COc1cc(C(=O)N[C@@H]2CCCNC2)ccc1-c1cc2nccc(-c3ccc(OC4CCOCC4)c(C#N)c3)c2o1 [Compound A120] |  | < 300 nM | < 300 nM
